From article PMC7932521, “2-aminobenzimidazoles for leishmaniasis: From initial hit discovery to in vivo profiling” (PLoS Neglected Tropical Diseases, 2021)

Target: T1, 5-HT2A (Homo sapiens, UniProt P28223)
T1 construct: expressed in transfected cells; host or cells: CHO
Assay: Bioprofiling 6pt Ag 5-HT2A CHO
Format: cell-based
Conditions: agonist readout
Protocol: (§1) The compounds were evaluated across a panel of 20 liability targets (37 functional assays) which included functional cell-based GPCRs and ion channels in both agonist and antagonist readout, measuring calcium flux and biochemical functional assays for nuclear hormone receptors and phosphodiesterases using TR-FRET format, in a 6 point 1:3 dilution dose series (maximum final concentration of 10 μM).

T1 sequence (P28223 whole entry): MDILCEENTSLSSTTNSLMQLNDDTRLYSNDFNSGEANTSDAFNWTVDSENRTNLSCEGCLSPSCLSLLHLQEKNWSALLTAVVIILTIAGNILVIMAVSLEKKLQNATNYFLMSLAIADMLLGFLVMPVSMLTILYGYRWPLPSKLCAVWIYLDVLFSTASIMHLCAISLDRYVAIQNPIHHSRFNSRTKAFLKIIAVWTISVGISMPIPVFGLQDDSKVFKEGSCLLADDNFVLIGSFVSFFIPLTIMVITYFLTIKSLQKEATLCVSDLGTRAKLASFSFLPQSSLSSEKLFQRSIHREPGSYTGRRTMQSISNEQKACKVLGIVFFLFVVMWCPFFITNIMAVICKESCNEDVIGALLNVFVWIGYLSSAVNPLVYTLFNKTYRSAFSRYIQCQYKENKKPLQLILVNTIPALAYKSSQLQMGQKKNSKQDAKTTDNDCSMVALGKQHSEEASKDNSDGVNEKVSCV

| SMILES | EC50 |
| --- | --- |
| Cn1nc(C(F)(F)F)cc1C(=O)Nc1nc2ccc(C#N)cc2n1CC(F)(F)F [Compound 39, O=C(c1cc(C(F)(F)F)nn1C)Nc2nc(ccc(C#N)c3)c3n2CC(F)(F)F] | > 10 µM |
| COc1ccc(C(=O)Nc2nc3ccc(C#N)cc3n2CC(F)(F)F)cn1 [Compound 43, O=C(c1ccc(OC)nc1)Nc2nc(ccc(C#N)c3)c3n2CC(F)(F)F] | > 10 µM |
| Cn1nccc1C(=O)Nc1nc2ccc(C#N)cc2n1CC(F)(F)F [Compound 30, O=C(c1ccnn1C)Nc2nc(ccc(C#N)c3)c3n2CC(F)(F)F] | > 10 µM |

Test system: PMM (Primary Mouse Macrophages)
Assay: Cytotoxicity on primary peritoneal mouse macrophages
Format: cell-based
Conditions: Mus musculus, Macrophage, read-out: IC-50 PMM (Primary Mouse Macrophages)
Method in brief: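 Host cells were peritoneal macrophages from Swiss mice, harvested after 2 days of starch stimulation and kept in RPMI-1640 with 5% FCS at 37 °C, 5% CO2. Compounds were tested in 4-fold dilutions from 64 μM, with final DMSO below 1%.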

| SMILES | IC50 |
| --- | --- |
| Cn1nc(C(F)(F)F)cc1C(=O)Nc1nc2ccc(C#N)cc2n1CC(F)(F)F [Compound 39, O=C(c1cc(C(F)(F)F)nn1C)Nc2nc(ccc(C#N)c3)c3n2CC(F)(F)F] | 34.3 µM |

Same assay, conditions: Mus musculus, Macrophage, read-out: PMM IC50

| SMILES | IC50 |
| --- | --- |
| Cn1nc(C(F)(F)F)cc1C(=O)Nc1nc2ccc(C#N)cc2n1CC(F)(F)F [Compound 39, O=C(c1cc(C(F)(F)F)nn1C)Nc2nc(ccc(C#N)c3)c3n2CC(F)(F)F] | 1.26 µM |
| COc1ccc(C(=O)Nc2nc3ccc(C#N)cc3n2CC(F)(F)F)cn1 [Compound 43, O=C(c1ccc(OC)nc1)Nc2nc(ccc(C#N)c3)c3n2CC(F)(F)F] | 32 µM |
| Cn1nccc1C(=O)Nc1nc2ccc(C#N)cc2n1CC(F)(F)F [Compound 30, O=C(c1ccnn1C)Nc2nc(ccc(C#N)c3)c3n2CC(F)(F)F] | 32 µM |

Test system: not listed separately
Assay: Mouse liver microsomal stability
Format: in vitro ADME
Conditions: S1 Data
Method in brief: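 Test compound at 0.5 μM incubated with 0.25 mg/mL human (200-donor pool) or CD1 mouse liver microsomes, pH 7.4, 37°C, started with […]; sampled 0–30 min. LC-MS/MS quantitation against internal standard; t1/2 and Clint (μL/min/mg) from non-linear regression of % remaining versus time.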

| SMILES | MLM CLint |
| --- | --- |
| COc1ccc(C(=O)Nc2nc3ccc(C#N)cc3n2CC(F)(F)F)cn1 [Compound 43, O=C(c1ccc(OC)nc1)Nc2nc(ccc(C#N)c3)c3n2CC(F)(F)F] | 170 µL/min/mg |

Same assay, conditions: mouse liver microsome intrinsic clearance

| SMILES | MLM CLint |
| --- | --- |
| Cn1nc(C(F)(F)F)cc1C(=O)Nc1nc2ccc(C#N)cc2n1CC(F)(F)F [Compound 39, O=C(c1cc(C(F)(F)F)nn1C)Nc2nc(ccc(C#N)c3)c3n2CC(F)(F)F] | 28 µL/min/mg |
| Cn1nccc1C(=O)Nc1nc2ccc(C#N)cc2n1CC(F)(F)F [Compound 30, O=C(c1ccnn1C)Nc2nc(ccc(C#N)c3)c3n2CC(F)(F)F] | 20 µL/min/mg |

Target: T2, Beta1 (Homo sapiens, UniProt P08588)
T2 construct: expressed in transfected cells; host or cells: CHO
Assay: Bioprofiling 6pt Ag Beta1 CHO
Format: cell-based
Conditions: agonist readout
Protocol: as §1

T2 sequence (P08588 whole entry): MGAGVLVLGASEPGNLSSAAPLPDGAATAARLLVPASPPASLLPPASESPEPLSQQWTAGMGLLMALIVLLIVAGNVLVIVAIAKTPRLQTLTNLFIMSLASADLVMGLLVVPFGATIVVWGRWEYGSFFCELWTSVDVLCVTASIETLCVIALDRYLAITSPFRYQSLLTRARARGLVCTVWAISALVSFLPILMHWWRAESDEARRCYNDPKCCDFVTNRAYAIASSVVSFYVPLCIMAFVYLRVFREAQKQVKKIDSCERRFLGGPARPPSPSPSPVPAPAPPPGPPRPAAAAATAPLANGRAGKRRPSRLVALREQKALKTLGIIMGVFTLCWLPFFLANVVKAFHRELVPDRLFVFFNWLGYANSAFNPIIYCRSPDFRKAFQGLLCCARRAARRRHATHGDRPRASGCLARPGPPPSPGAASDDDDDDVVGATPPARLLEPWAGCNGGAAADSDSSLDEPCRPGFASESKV

| SMILES | EC50 |
| --- | --- |
| Cn1nc(C(F)(F)F)cc1C(=O)Nc1nc2ccc(C#N)cc2n1CC(F)(F)F [Compound 39, O=C(c1cc(C(F)(F)F)nn1C)Nc2nc(ccc(C#N)c3)c3n2CC(F)(F)F] | > 10 µM |
| COc1ccc(C(=O)Nc2nc3ccc(C#N)cc3n2CC(F)(F)F)cn1 [Compound 43, O=C(c1ccc(OC)nc1)Nc2nc(ccc(C#N)c3)c3n2CC(F)(F)F] | > 10 µM |
| Cn1nccc1C(=O)Nc1nc2ccc(C#N)cc2n1CC(F)(F)F [Compound 30, O=C(c1ccnn1C)Nc2nc(ccc(C#N)c3)c3n2CC(F)(F)F] | > 10 µM |

Target: T3, B2 (Homo sapiens, UniProt P30411)
T3 construct: expressed in transfected cells; host or cells: CHO
T3 sequence (P30411 1-391): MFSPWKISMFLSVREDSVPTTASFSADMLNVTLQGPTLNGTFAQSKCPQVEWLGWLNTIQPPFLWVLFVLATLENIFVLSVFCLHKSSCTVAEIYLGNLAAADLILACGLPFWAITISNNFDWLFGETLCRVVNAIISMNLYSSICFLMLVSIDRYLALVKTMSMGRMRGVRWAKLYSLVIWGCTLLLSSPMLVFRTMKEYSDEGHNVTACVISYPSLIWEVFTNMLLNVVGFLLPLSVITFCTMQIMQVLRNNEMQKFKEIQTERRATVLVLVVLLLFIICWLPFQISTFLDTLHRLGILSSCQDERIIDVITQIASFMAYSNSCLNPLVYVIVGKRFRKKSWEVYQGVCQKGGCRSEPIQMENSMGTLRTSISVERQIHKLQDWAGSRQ
Assay: Bioprofiling 6pt Ag B2 CHO
Format: cell-based
Conditions: agonist readout
Protocol: as §1

| SMILES | EC50 |
| --- | --- |
| Cn1nc(C(F)(F)F)cc1C(=O)Nc1nc2ccc(C#N)cc2n1CC(F)(F)F [Compound 39, O=C(c1cc(C(F)(F)F)nn1C)Nc2nc(ccc(C#N)c3)c3n2CC(F)(F)F] | > 10 µM |
| COc1ccc(C(=O)Nc2nc3ccc(C#N)cc3n2CC(F)(F)F)cn1 [Compound 43, O=C(c1ccc(OC)nc1)Nc2nc(ccc(C#N)c3)c3n2CC(F)(F)F] | > 10 µM |
| Cn1nccc1C(=O)Nc1nc2ccc(C#N)cc2n1CC(F)(F)F [Compound 30, O=C(c1ccnn1C)Nc2nc(ccc(C#N)c3)c3n2CC(F)(F)F] | > 10 µM |

Test system: Leishmania infantum MHOM/MA(BE)/67/ITMAP263 amastigotes
Assay: L. infantum intracellular amastigote assay in PMM
Format: cell-based
Conditions: CC50 / L. infantum IC50
Method in brief: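 Mouse peritoneal macrophages infected with hamster spleen-derived amastigotes (2 h, 37°C), then exposed to 4-fold dilutions from 64 μM (DMSO <1%) for 5 days at 37°C, 5% CO2. Burden scored microscopically after Giemsa staining as percent reduction vs untreated wells; IC50 as geometric mean of ≥2 experiments.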

| SMILES | SI: selectivity index (CC50 / IC50) |
| --- | --- |
| Cn1nc(C(F)(F)F)cc1C(=O)Nc1nc2ccc(C#N)cc2n1CC(F)(F)F [Compound 39, O=C(c1cc(C(F)(F)F)nn1C)Nc2nc(ccc(C#N)c3)c3n2CC(F)(F)F] | 2 |
| COc1ccc(C(=O)Nc2nc3ccc(C#N)cc3n2CC(F)(F)F)cn1 [Compound 43, O=C(c1ccc(OC)nc1)Nc2nc(ccc(C#N)c3)c3n2CC(F)(F)F] | 5 |
| Cn1nccc1C(=O)Nc1nc2ccc(C#N)cc2n1CC(F)(F)F [Compound 30, O=C(c1ccnn1C)Nc2nc(ccc(C#N)c3)c3n2CC(F)(F)F] | 14 |

Same assay, conditions: L. infantum IC50

| SMILES | potency compared to initial hit 1 | potency compared to parent compound 30 |
| --- | --- | --- |
| Cn1nc(C(F)(F)F)cc1C(=O)Nc1nc2ccc(C#N)cc2n1CC(F)(F)F [Compound 39, O=C(c1cc(C(F)(F)F)nn1C)Nc2nc(ccc(C#N)c3)c3n2CC(F)(F)F] | 10 to 20 fold | 4 fold |

Same assay, conditions: Leishmania infantum, 120 h, intracellular amastigotes in PMM, 5 days; read-out: L. infantum IC50

| SMILES | IC50 |
| --- | --- |
| Cn1nc(C(F)(F)F)cc1C(=O)Nc1nc2ccc(C#N)cc2n1CC(F)(F)F [Compound 39, O=C(c1cc(C(F)(F)F)nn1C)Nc2nc(ccc(C#N)c3)c3n2CC(F)(F)F] | 0.5 µM |
| COc1ccc(C(=O)Nc2nc3ccc(C#N)cc3n2CC(F)(F)F)cn1 [Compound 43, O=C(c1ccc(OC)nc1)Nc2nc(ccc(C#N)c3)c3n2CC(F)(F)F] | 7 µM |
| Cn1nccc1C(=O)Nc1nc2ccc(C#N)cc2n1CC(F)(F)F [Compound 30, O=C(c1ccnn1C)Nc2nc(ccc(C#N)c3)c3n2CC(F)(F)F] | 2.2 µM |

Same assay, conditions: Leishmania infantum, S1 Data; read-out: L. infantum IC50

| SMILES | IC50 |
| --- | --- |
| COc1ccc(C(=O)Nc2nc3ccc(C#N)cc3n2CC(F)(F)F)cn1 [Compound 43, O=C(c1ccc(OC)nc1)Nc2nc(ccc(C#N)c3)c3n2CC(F)(F)F] | 6.95 µM |
| Cn1nccc1C(=O)Nc1nc2ccc(C#N)cc2n1CC(F)(F)F [Compound 30, O=C(c1ccnn1C)Nc2nc(ccc(C#N)c3)c3n2CC(F)(F)F] | 2.22 µM |

Same assay, conditions: intracellular amastigotes in PMM, 5 days; read-out: L. infantum IC50

| SMILES | IC50 |
| --- | --- |
| Cn1nc(C(F)(F)F)cc1C(=O)Nc1nc2ccc(C#N)cc2n1CC(F)(F)F [Compound 39, O=C(c1cc(C(F)(F)F)nn1C)Nc2nc(ccc(C#N)c3)c3n2CC(F)(F)F] | 0.53 µM |

Target: T4, 5-HT1A (Homo sapiens, UniProt P08908)
T4 construct: expressed in transfected cells; host or cells: CHO
T4 sequence (P08908 1-422): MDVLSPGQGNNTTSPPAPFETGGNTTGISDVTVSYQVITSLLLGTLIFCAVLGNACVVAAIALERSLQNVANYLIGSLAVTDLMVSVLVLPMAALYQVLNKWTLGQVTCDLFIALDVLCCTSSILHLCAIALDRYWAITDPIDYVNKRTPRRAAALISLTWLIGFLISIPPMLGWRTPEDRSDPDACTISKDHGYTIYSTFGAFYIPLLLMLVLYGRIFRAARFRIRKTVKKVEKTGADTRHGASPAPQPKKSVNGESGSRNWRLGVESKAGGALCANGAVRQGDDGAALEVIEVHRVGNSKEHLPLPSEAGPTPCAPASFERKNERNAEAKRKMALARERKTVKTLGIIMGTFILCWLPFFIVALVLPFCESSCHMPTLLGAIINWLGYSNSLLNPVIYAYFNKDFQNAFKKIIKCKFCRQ
Assay: Bioprofiling 6pt Antag 5-HT1A CHO
Format: cell-based
Conditions: antagonist readout vs 5-Carboxytryptamine (5-CT)
Protocol: as §1

| SMILES | IC50 |
| --- | --- |
| Cn1nc(C(F)(F)F)cc1C(=O)Nc1nc2ccc(C#N)cc2n1CC(F)(F)F [Compound 39, O=C(c1cc(C(F)(F)F)nn1C)Nc2nc(ccc(C#N)c3)c3n2CC(F)(F)F] | > 10 µM |
| COc1ccc(C(=O)Nc2nc3ccc(C#N)cc3n2CC(F)(F)F)cn1 [Compound 43, O=C(c1ccc(OC)nc1)Nc2nc(ccc(C#N)c3)c3n2CC(F)(F)F] | > 10 µM |
| Cn1nccc1C(=O)Nc1nc2ccc(C#N)cc2n1CC(F)(F)F [Compound 30, O=C(c1ccnn1C)Nc2nc(ccc(C#N)c3)c3n2CC(F)(F)F] | > 10 µM |

Target: Cav1.2 (L-type) (Mus musculus, UniProt Q01815)
Assay: Bioprofiling 6pt Ag Cav1.2 (L-type) ND7/23
Format: cell-based
Conditions: mouse/rat, ND7/23 cells; agonist readout
Protocol: as §1

Cav1.2 (L-type), sequence (Q01815 whole entry): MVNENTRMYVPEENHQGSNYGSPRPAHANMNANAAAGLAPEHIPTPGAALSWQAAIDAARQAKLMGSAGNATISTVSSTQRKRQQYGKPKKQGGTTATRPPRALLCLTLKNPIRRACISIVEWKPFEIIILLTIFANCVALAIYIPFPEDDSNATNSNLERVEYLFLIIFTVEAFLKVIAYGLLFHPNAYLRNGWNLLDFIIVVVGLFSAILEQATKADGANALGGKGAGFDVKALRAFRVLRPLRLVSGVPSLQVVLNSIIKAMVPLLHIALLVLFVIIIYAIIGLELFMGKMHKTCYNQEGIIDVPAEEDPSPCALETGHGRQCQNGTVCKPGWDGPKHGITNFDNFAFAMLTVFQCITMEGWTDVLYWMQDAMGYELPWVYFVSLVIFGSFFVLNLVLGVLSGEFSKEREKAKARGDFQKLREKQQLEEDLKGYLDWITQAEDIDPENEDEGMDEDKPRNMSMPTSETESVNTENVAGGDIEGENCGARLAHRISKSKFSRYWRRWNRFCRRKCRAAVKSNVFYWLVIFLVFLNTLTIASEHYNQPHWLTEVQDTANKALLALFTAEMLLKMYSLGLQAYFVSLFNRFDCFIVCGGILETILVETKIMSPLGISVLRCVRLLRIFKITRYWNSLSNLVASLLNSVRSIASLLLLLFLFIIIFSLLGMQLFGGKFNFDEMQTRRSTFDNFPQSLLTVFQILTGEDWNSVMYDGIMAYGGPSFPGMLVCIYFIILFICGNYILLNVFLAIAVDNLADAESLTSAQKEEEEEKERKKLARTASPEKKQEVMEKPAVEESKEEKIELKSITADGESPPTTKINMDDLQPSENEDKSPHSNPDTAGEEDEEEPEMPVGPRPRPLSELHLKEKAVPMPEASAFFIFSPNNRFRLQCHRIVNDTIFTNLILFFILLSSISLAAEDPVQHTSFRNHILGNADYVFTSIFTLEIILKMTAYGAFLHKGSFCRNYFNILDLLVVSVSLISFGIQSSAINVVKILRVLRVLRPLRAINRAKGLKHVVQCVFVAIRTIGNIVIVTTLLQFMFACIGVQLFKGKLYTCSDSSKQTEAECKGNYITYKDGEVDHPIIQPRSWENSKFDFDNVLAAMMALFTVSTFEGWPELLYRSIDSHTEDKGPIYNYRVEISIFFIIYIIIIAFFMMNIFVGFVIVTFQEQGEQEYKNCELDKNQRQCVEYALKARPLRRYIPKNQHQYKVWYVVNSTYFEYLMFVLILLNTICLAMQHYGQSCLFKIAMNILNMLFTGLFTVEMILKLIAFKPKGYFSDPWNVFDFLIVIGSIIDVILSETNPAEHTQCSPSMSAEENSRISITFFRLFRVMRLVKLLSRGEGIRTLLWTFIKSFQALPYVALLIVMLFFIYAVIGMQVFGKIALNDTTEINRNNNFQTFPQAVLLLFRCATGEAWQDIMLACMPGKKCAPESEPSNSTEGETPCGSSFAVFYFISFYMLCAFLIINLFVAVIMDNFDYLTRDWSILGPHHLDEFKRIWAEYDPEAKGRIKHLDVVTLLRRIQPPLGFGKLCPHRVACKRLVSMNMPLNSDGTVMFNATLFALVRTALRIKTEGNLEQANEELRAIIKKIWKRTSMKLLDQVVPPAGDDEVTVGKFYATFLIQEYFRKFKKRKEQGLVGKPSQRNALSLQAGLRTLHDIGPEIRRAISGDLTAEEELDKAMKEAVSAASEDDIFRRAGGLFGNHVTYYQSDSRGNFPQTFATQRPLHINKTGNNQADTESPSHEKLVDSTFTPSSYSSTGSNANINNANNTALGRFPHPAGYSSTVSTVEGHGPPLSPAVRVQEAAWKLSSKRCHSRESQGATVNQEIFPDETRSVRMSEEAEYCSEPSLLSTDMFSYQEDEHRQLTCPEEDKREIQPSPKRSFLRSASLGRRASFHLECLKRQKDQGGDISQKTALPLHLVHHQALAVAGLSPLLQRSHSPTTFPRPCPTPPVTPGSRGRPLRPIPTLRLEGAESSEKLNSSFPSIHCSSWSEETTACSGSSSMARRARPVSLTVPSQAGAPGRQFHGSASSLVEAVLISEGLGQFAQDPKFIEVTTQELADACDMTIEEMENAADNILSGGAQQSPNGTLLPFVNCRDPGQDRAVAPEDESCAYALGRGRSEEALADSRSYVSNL

| SMILES | EC50 |
| --- | --- |
| Cn1nc(C(F)(F)F)cc1C(=O)Nc1nc2ccc(C#N)cc2n1CC(F)(F)F [Compound 39, O=C(c1cc(C(F)(F)F)nn1C)Nc2nc(ccc(C#N)c3)c3n2CC(F)(F)F] | > 10 µM |
| COc1ccc(C(=O)Nc2nc3ccc(C#N)cc3n2CC(F)(F)F)cn1 [Compound 43, O=C(c1ccc(OC)nc1)Nc2nc(ccc(C#N)c3)c3n2CC(F)(F)F] | > 10 µM |
| Cn1nccc1C(=O)Nc1nc2ccc(C#N)cc2n1CC(F)(F)F [Compound 30, O=C(c1ccnn1C)Nc2nc(ccc(C#N)c3)c3n2CC(F)(F)F] | > 10 µM |
